The values that follow come from patent publication US5646156A, “Inhibition of eosinophil activation through A3 adenosine receptor antagonism” (Merck & Co., Inc., priority 1994, dated 1997).

“And” between values parts separate entries of the source, which are not always exact repeats. Identical values can stand only once. “Also recorded” adds a separate entry of the source. Like-named read-outs stand apart in the source and are kept apart here.

For experiment [1], the system named is human adenosine receptors (all subtypes). The settings on record: cited from earlier work.
Experiment [2] has as its system rat A3 adenosine receptor. The settings on record: reported in literature; cited from earlier work.
The target in experiment [3] is T1, human A3 adenosine receptor (Homo sapiens, UniProt P0DMS8).
T1 construct: clone HS-21a contained the complete open reading frame corresponding to the human homolog of the rat A3 adenosine receptor; expressed in transfected cells; host or cells: CHO cells, stably transfected (pCMV5-A3; pSVL and pREP vectors are also described)
T1 sequence (P0DMS8 1-318): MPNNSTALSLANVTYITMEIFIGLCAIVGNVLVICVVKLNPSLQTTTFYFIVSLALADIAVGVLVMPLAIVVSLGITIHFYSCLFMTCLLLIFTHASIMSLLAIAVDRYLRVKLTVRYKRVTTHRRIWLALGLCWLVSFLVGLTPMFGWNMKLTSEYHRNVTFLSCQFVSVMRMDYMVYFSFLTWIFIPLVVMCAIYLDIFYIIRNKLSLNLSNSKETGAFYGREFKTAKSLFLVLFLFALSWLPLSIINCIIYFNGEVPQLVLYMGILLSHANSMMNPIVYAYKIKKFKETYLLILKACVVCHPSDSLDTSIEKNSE
Nature of the experiment: Saturation binding of 125I-ABA to membranes of CHO cells stably expressing HS-21a (human A3 adenosine receptor). The settings on record: for prevention of specific binding of 125I-ABA: 1 mM nonradioactive I-ABA (so in the source) or 400 μM NECA.

The target of experiment [4] is T1, human A3 adenosine receptor. The experiment can be described thus: Inhibition of forskolin-stimulated cAMP accumulation, CHO cells stably expressing HS-21a (human A3 adenosine receptor). The experiment is classed as cell-based. As for the experimental part: (§1) Determinations were made on stably transfected CHO cells in suspension as described (Linden et al., (1993) Mol. Pharm. 44:524-532). Supernatants (500 μL) were acetylated and acetylcyclic AMP was measured by automated radioimmunoassay (Hamilton, B. R. and Smith, D. O. (1991) J. Physiol. (Lond.) 432, 327-341). Antagonist dissociation constants were estimated from pA2 values as described by Schild (1957) Pharm. Rev. 9, 242-246).
(§2) The ability of the HS-21a receptor stably expressed in CHO cells to couple to the cAMP regulatory system was measured using adenosine as an agonist. […] In the absence of forskolin, adenosine had no effect on the cAMP levels. In non-transfected CHO cells, adenosine had no effect on cAMP levels when measured with or without forskolin treatment.
(In general: Changes in cAMP serve as a functional read-out for many G protein-coupled receptors.)

Experiment [5] relates to sheep A3 adenosine receptor. As to conditions: CHO cells; cited from earlier work.
The test system of experiment [6] is cytokine activated eosinophils. The experiment can be described thus: Treatment of cytokine activated eosinophils (hypersensitivity to adenosine, degranulation, effector function). The experiment is classed as cell-based.
The target of experiment [7] is sheep A3 adenosine receptor. The settings on record: cited from earlier work.
The target of experiment [8] is T1, human A3 adenosine receptor. Nature of the experiment: Competition binding vs 125I-ABA, membranes of CHO cells stably expressing HS-21a (human A3 adenosine receptor). As for the experimental part: Pellets were resuspended in 5 mM Hepes, pH 7.4/5 mM MgCl2 /0.1 mM benzamidine/0.1 mM PMSF at a protein concentration of 1-2 mg/mL and were incubated with adenosine deaminase (Boehringer Mannheim), 2 U/mL at 37° C. for 20 minutes. […] The assay was terminated by rapid filtration and three washes with ice-cold binding buffer on a Skatron harvester equipped with a receptor binding filtermat (Skatron Instruments, INC). […] Nonspecific binding was measured in the presence of 1 μM I-ABA. […] Binding data were analyzed and competition curves were constructed by use of the nonlinear regression curve fitting program Graph PAD InPlot, Version 3.0 (Graph Pad Software, San Diego).

For experiment [9] the target is unchanged. As to conditions: antagonist potency in cAMP assay; disclosed by Salvatore et al.; cited from earlier work.
Experiment [10] is described as follows: Radioligand binding to membranes from CHO cells (non-transfected / non-specific).
Experiment [11] has as its system non-transfected CHO cells. Nature of the experiment: cAMP levels in non-transfected CHO cells. The experiment is classed as cell-based. The settings on record: with or without forskolin. On the procedure: as §1, §2
Another experiment relates to eosinophils. Nature of the experiment: Induction of eosinophil activation in animals. The settings on record: in vivo.
The test system of a further experiment is asthmatics. The settings on record: cited from earlier work; for bronchoconstriction in asthmatics: not nonasthmatics.
A further experiment deals with activated mast cells. As to conditions: cited from earlier work.
The subject of experiment [12] is A1 adenosine receptor transcript, human eosinophils. Nature of the experiment: A1 adenosine receptor transcript expression (RT-PCR) in GM-CSF stimulated eosinophils. Type of experiment: cell-based. As for the experimental part: (§3) Eosinophils and neutrophils (80-99% purity) were purified from human peripheral blood by an immunomagnetic procedure described by Hansel et al. (1991) J. Immunol. Methods 145: 105-110. Isolated cells (2-2.6×10^6 cells/mL) were cultured in the presence of 150 pM human recombinant granulocyte-macrophage colony stimulating factor, GM-CSF (Calbiochem, San Diego, Calif.) for 16 hours in RPMI with 10% fetal calf serum, at 37° C. in 5% CO2. Total RNA was extracted by the guanidinium isothiocyanate method (Chirgwin, J. M., et al, (1979) Biochemistry 18:5294-5299) from approximately 1.3×10^7 human eosinophils (+) or (-) GM-CSF stimulation. […]
(§4) Human adenosine receptor subtype transcript expression was determined using the polymerase chain reaction (PCR). […]
(§5) Ten μl of each PCR amplification reaction was elecrophoresed on a 1.4% agarose gel and alkaline blotted to Zeta-Probe GT membranes according to the manufacturer's protocol (BIO-RAD, Hercules, Calif.). […] The presence of A2a, A2b and A3 receptor PCR products were detected from normal and GM-CSF treated eosinophils.
(§6) PCR reaction products were quantitated using a Molecular Dynamics Phosphorimager and ImageQuant software. […] Quantitation of GAPDH was used to correct message level differences in the (+) or (-) GM-CSF stimulated human eosinophils. […]

Experiment [13] concerns A2b adenosine receptor transcript, human eosinophils. Nature of the experiment: A2b adenosine receptor transcript expression (RT-PCR) in GM-CSF stimulated eosinophils. Type of experiment: cell-based. The settings on record: GM-CSF (150 pM, 16 hours). As for the experimental part: as §3, §4, §5, §6
The subject of experiment [14] is A2a adenosine receptor transcript, human eosinophils. Nature of the experiment: A2a adenosine receptor transcript expression (RT-PCR) in GM-CSF stimulated eosinophils. The experiment is classed as cell-based. On the procedure:
as §3, §4, §5, §6

Experiment [15] concerns A3 adenosine receptor transcript, human eosinophils. Nature of the experiment: A3 adenosine receptor transcript expression (RT-PCR) in GM-CSF stimulated eosinophils. Type of experiment: cell-based. As to conditions: GM-CSF (150 pM, 16 hours). As for the experimental part:
as §3, §4, §5, §6

Where [16] appears, read: 125I-ABA, HS-21a stable CHO cell membranes.

With `CCCn1c(=O)c2[nH]c(C3CCCC3)nc2n(CCC)c1=O` [DPCPX, 1,3-dipropyl-8-cyclopentylxanthine], the “blockade of human adenosine receptor subtypes” value in experiment [1] is reported as “blocked”. For the same molecule, the “binding to rat A3 receptor” value in experiment [2] is given as “not to bind”.

Turning to `Nc1nc2c(ncn2[C@@H]2O[C@H](COP(=O)(O)OP(=O)(O)OP(O)(O)=S)[C@@H](O)[C@H]2O)c(=O)[nH]1` [GTPγS, guanosine 5'-O-3-thiotriphosphate], the inhibition at 10 µM in experiment [3] (read-out: reduction of specific binding of 125I-ABA) was determined as 56%.

For `Nc1ccc(CNc2ncnc3c2ncn3[C@@H]2O[C@H](CO)[C@@H](O)[C@H]2O)cc1I` [I-ABA], the “prevention of specific binding of 125I-ABA” value in experiment [3] is listed as “prevented”. In addition, the “inhibition of forskolin-stimulated cyclic AMP accumulation compared with NECA and other agonists (PIA and CPA)” value in experiment [4] (CHO cells, human A3) is recorded as “only about half as much inhibition”. Besides, the “agonist type for lowering cyclic AMP” value was “partial agonist” in [4] (CHO cells, human receptor) and “full” in [5]. The “shift of NECA dose response curve to lower cyclic AMP” value in [4] (NECA in presence of I-ABA) was “fight-shifted”.

A word on the Ki: it is the dissociation constant of the complex between target and ligand, obtained from inhibition or displacement. Regarding `CCCn1c(=O)c2[nH]c(-c3ccc(OCC(=O)O)cc3)nc2n(Cc2ccc(N)c(I)c2)c1=O` [I-ABOPX, 3-(3-iodo-4-aminobenzyl)-8-(4-oxyacetate)phenyl-1-propylxanthine], the “hypersensitivity to adenosine, eosinophil degranulation and effector function” value in experiment [6] was “blockade of this hypersensitivity and inhibition of eosinophil degranulation and effector function”. Moreover, the Ki in experiment [7] is 2 nM; in experiment [8] (competition with 125I-ABA, CHO membranes, human A3), 18 nM. Besides, the “affinity for human A3 receptor” value in experiment [8] (in words) is on record as “highest affinity antagonist yet reported for A3 adenosine receptors”. The “cAMP pKi” value in experiment [9] is given as 8.13.

Turning to `CCNC(=O)[C@H]1O[C@@H](n2cnc3c(N)ncnc32)[C@H](O)[C@@H]1O` [NECA, N-ethylcarboxamidoadenosine], the “prevention of specific binding of 125I-ABA” value in experiment [3] is “prevented”.

Take `CCCn1c(=O)c2[nH]c(-c3ccc(OCC(=O)NCCN)cc3)nc2n(CCC)c1=O` [XAC, xanthine amine cogener]: in [1], the “blockade of human adenosine receptor subtypes” value was “blocked”. The “binding to rat A3 receptor” value in [2] is “not to bind”.

One may read the Hill coefficient as the slope factor of the fitted curve. `Nc1ccc(CNc2ncnc3c2ncn3[C@@H]2O[C@H](CO)[C@@H](O)[C@H]2O)cc1[125I]` [^125 I-ABA, N^6-(4-amino-3-^125 iodobenzyl)adenosine]: in [3] (setting [16]), the Bmax amounted to 258 fmol/mg protein and the Hill coefficient is 0.99. In addition, the Kd in experiment [3] (125I-ABA, HS-21a stable CHO cell membranes, read-out: dissociation constant) amounted to 10 nM. In addition, the “specific binding to non-transfected CHO cell membranes” value in [10] (125I-ABA) was “No specific binding”.

On to `Nc1ccc(CCNc2ncnc3c2ncn3[C@@H]2O[C@H](CO)[C@@H](O)[C@H]2O)cc1[125I]` [^125 I-APNEA, N^6-2-(4-amino-3-^125 iodophenyl)ethyladenosine], for which, in experiment [10] (125I-APNEA, preliminary experiments), the “non-specific binding to CHO cell membranes” value was “high non-specific”.

As for `Nc1ncnc2c1ncn2[C@@H]1O[C@H](CO)[C@@H](O)[C@H]1O` [adenosine], the “effect on cAMP levels in non-transfected CHO cells” value in [11] is given as “no effect”. For the same molecule, in the experiment on eosinophils, the “eosinophil activation in animals” value is given as “induce eosinophil activation”. The bronchoconstriction in asthmatics entry is on record as “induces bronchoconstriction in asthmatics but not in normal individuals; also recorded: produces bronchoconstriction in asthmatics but not in nonasthmatics” with asthmatics (listed as Adenosine) and “produces bronchoconstriction” in the experiment with asthmatics. For the same molecule, in [4] (CHO, read-out: inhibition of forskolin-stimulated increase in cAMP), the inhibition at 10 µM came out at 30%. Further, the “effect on cAMP levels in absence of forskolin” value in [4] (HS-21a CHO cells, no forskolin) is on record as “no effect”. Further, the “release of histamine from activated mast cells” value in the experiment on activated mast cells was “potentiate”.

Consider `Cn1c(=O)c2[nH]cnc2n(C)c1=O` [theophylline], for which the “antagonism of adenosine-induced bronchoconstriction” value in the experiment on asthmatics was “antagonized”.

For “GM-CSF: human recombinant granulocyte-macrophage colony stimulating factor, GM-CSF (Calbiochem, San Diego, Calif.)”, the A1 transcript expression result in experiment [12] is given as “no A1 products were observed; also recorded: remained unchanged”. In experiment [13], the “up-regulation of A2b transcripts” value was ~3 fold and 3 to 4 fold. The “A2a transcript / message level change” value in experiment [14] is listed as “no change; also recorded: remained unchanged”. In [15], the “up-regulation of A3 transcripts” value is recorded as approximately 10 fold.
